Here are results for one compound from article PMC8143339, “PK/PD Modeling of the PDE7 Inhibitor—GRMS-55 in a Mouse Model of Autoimmune Hepatitis” (Pharmaceutics, 2021).

In one data set the test system is PDE1B. On the set-up: method as in PMID 31899535. The settings on record: cited from earlier work.
Data set [1] can be described thus: Stability in serum samples and stock solutions (bioanalytical validation). Type of data set: physicochemical, mouse. As to the method: To analyze GRMS-55 concentrations in the mouse serum, we used the previously developed HPLC method with UV detection. A detailed description of this method was published in a supplementary material of our previous publication. Briefly, 10 μL of 4-(8-((furan-2-ylmethyl)amino)-1,3-dimethyl-2,6-dioxo-1,2,3,6-tetrahydro-7H-purin-7-yl)-N′-(2-hydroxybenzylidene)butanehydrazide solution as internal standard (IS) was added to tubes containing 100 μL of the analyzed serum. The samples were mixed with 20 μL of 1 M hydrochloric acid solution, subjected to extraction with 1 mL of dichloromethane, and centrifuged at 10,000× g for 8 min. The organic layers were transferred to new tubes and evaporated with nitrogen at 37 °C. Dry residues were then dissolved in 100 μL of mobile phase and transferred to glass vial inserts for HPLC analysis (LaChrom Elite, Merck-Hitachi, Darmstadt, Germany). […] Within runs and between runs, precision and accuracy met the acceptance criteria, i.e., they were less than 15% expressed as coefficients of variation % (CVs%) or ±15% of the nominal concentrations, respectively, for all quality control levels. Recoveries of the analyzed compound and IS assessed by comparing the peak areas of extracted samples with corresponding extracts of blanks spiked with the analyte post-extraction ranged from 94% to 98%. The lower limit of quantification was 0.05 mg·L^−1. […]

On to `Cn1c(=O)c2c(nc(NCCc3ccccc3)n2CCCC(=O)NN=Cc2ccccc2O)n(C)c1=O` [GRMS-55, 4-(1,3-dimethyl-2,6-dioxo-8-(phenethylamino)-1,2,3,6-tetrahydro-7H-purin-7-yl)-N′-(2-hydroxybenzylidene)butanehydrazide], for which, in the data set on PDE1B, the “potency of PDE1B suppression” value is on record as “high”. In addition, the “stability in serum samples, time stable” value in data set [1] (room temperature) was “at least 12 h”; in data set [1] (–20 °C), 12 months.
